Values after ≈ are worked out from the molar mass of the structure shown. Where two headings read alike, the source gives them in different places.
Columns and labels:
[1] = system: E. coli CFT073 adhesion to human urinary bladder cells (T24); assay: In vitro adhesion test (ADH): adhesion of E. coli to human bladder cells, cfu plate count; type: cell-based; conditions: for reduction of adhesion of E. coli CFT073 on urinary bladder cells: 1 h, adhesion <50% of control = significant, FIG. 1C
Description: In Vitro Adhesion Test (ADH)—Host-Pathogen-Interaction Assessed by In Vitro Adhesion to Human Cells Adhesion of E. coli to bladder epithelium was established in cell culture. Upon exposure to E. coli an epithelial cell detachment was observed, in a manner similar to in vivo exfoliation. The test was miniaturized by growing the epithelium cell cultures in 96-well plates instead of the classical 24-well plates.
The test samples were added prior to the start of the adhesion process. Bladder cells grown to confluence in 96-well plates were exposed to E. coli (50 μL of E. coli at 1.4*10^7 cfu/mL in each well) for 1 h. After 1 h, non-adhered E. coli were rinsed off and the adhered E. coli were detached and enumerated by plate counting colony-forming-units (cfu). Enumeration was automatized using a spiral plate count apparatus which further improved the test-variability.
The E. coli adhesion test was run in absence (given as 100% adhesion) and presence of different concentrations of the agents. […] Human cytotoxicity measurements of the mitochondrial activity (MTT) excluded side-effects of the agents.
Results are presented in FIG. 1C where relative adhesion (ADH) is expressed in percent (no inhibition control=100%; buffer was used instead of the treatments). All adhesion values<50% are defined as a significant inhibition.
Anti-adhesive effect is measured in vitro (standard method) using centrifuged extracts (Fu1) of Filipendula ulmaria (F) and Epilobium parviflorum (E) using human epithelial bladder cells (T24 ATCC® HTB-4™ Homo sapiens urinary bladder cell lines).

E. coli = assay: In vitro antibacterial assay (MIC), E. coli growth in solution in 96-well plates, plate counting; type: cell-based; conditions: for MIC: Escherichia coli
Description: E. coli growth in solution was measured in 96-well plates. Absence and presence of different concentrations of the test agent during exponential growth determined the MIC (minimal inhibitory concentration) value. E. coli enumeration was by the plate-counting method (ufc) as described above.

[2] = Analysis of salicylic acid and its metabolites in urines of treated mice (HPLC-MRM-MS); type: in vivo; conditions: for share of ingested SA found in the urines in this form: Filipendula ulmaria extract with 1.3% SA, total 40 mg in 8 doses over 24 h, oral
Description: A: Comparison of RT from analytical standards of salicylic acid (SA) (1) and its metabolites […] (DHBA) (2) and salicyluric acid (SUA) (3) and peaks found in urine samples collected from the group treated with Filipendula ulmaria extract (Fil). Analysis was performed on a SunFire™ C18 ([…], 3.0 mm×150 mm) column (Waters). 5% MeCN (A) and MeCN (B) both containing 0.1% of formic acid were used as mobile phase. A gradient of 0 to 100% B in 20 min was applied at a flow rate of 0.8 mL/min. B: Concentration, amounts (in samples collected over a 3-hour-period) and cumulative amounts of salicylic acid (SA) (1) and its metabolites 2,3-dihydroxybenzoic acid (DHBA) (2) and salicyluric acid (SUA) (3) found in urine samples collected from groups treated with Filipendula ulmaria extract (F). Cumulative amounts are the cumulated amounts of the respective compounds in the urine over time up to the indicated timepoint. Numbers on x-axis indicate collection time. Analysis was performed by HPLC-MRM-MS using the chromatographic conditions described in A.
The urines collected from control groups as described in Example 3 were compared against urines collected from mice treated with different combinations of plant extracts. The urines were analyzed using HPLC-UV/MS on a SunFire C18 column column. 5% MeCN (A) and MeCN (B) both containing 0.1% of formic acid were used as mobile phase. A gradient of 0 to 100% B in 20 min was applied at a flow rate of 0.8 mL/min. MS scans were recorded in positive and negative ion modes (ESI+/−). Major additional peaks in the groups treated with a mixture of Filipendula ulmaria-Epilobium parviflorum were identified as salicylic acid (SA) (1), 2,3-dihydroxybenzoic acid (DHBA) (2), and salicyluric acid (SUA) (3). FIG. 3A compares the RT from analytical standards of salicylic acid (SA) (1) and its metabolites salicyluric acid (SUA) ([…]) and 2,3-dihydroxybenzoic acid (DHBA) (2), and peaks found in urine samples collected from groups treated with Filipendula extracts. The exact mass of the three molecules was confirmed using high-resolution mass spectrometry. Further, the three identified metabolites were quantified in the urine samples by MRM—with the following transitions (m z): 136.5→65.0, 136.5→92.9 (SA); 152.9→108.9, 152.9→80.9 (DHBA); 194.0→150.0, 194.0→92.9 (SUA) and pure analytical standards that were diluted in urine from negative controls for the calibration curve.
The amounts of SA, SUA et DHBA were quantified in the urine of mice after absorption of an extract of Filipendula ulmaria containing 1.3% of SA at a total dose of 40 mg divided in 8 equal doses over 24 h as described above (Example 3, in-vivo efficacy studies).

E. coli CFT073 = assay: In vivo UTI mouse model: living E. coli in bladder homogenates (bladder adhesion); design: species or system mice
Source text: (§1) An in vivo test of UTI (urinary tract infection) was established and implemented for the identification of active plant extracts and compounds. […] which were age matched females were adapted to the clean, non-septic laboratory conditions. The experiment started with a 2 days nutrition enriched by glucose in order to facilitate the subsequent UTI infection. Each compound, or plant extract was then applied at various concentrations by 8 consecutive intestinal ingestions by gavage-devices over the duration of 24 h. Each ingestion comprised a volume of 100 μL solution. During these 24 h the mice were hold in metabolic cages. The urine was collected every 3 h to analyze diuresis effects. For the subsequent UTI infection*, the isolate E. coli CFT073 (commercially available at DSM, originating from human UTI) was applied trans-urethral into the bladder and incubated in vivo for a 3 h duration and free movements in normal cages. Mice were euthanized and living E. coli were enumerated in bladder homogenates (homogenization of 12 bladder for living bacteria counting (cfu)), and organ morphology were assessed by histology microscopy. *UTI Infection with 50 μL of E. coli (CFT073) containing […] inoculated in the bladder (in another experiment, the in vivo infection was run similarly, but with slightly less germs 3.3×10^6 or 5×10^6 germs per inoculation).
The in-vivo anti-adhesion effect of the various substances and extracts of the invention were tested in vivo using a mouse model as described above by giving orally 100 μL of test substance every 3 hours for 24 h prior to inoculating E. coli in the bladder 3 h before measuring E. coli in the bladder. At the end of each assay, mice are euthanized, and their bladder homogenized for E. coli measurements.

[3] = Diuretic effects: urine collected over 24 h in the mouse model; type: in vivo; conditions: 68.8 μg/100 μL orally every 3 h; urine of 6 mice over 24 h
Source text: as §1, with “For the subsequent UTI infection*, the isolate E. coli CFT073 (commercially available at DSM, originating from human UTI) was applied trans-urethral into the bladder and incubated in vivo for a 3 h duration and free movements in normal cages.” left out
The urines were collected from control groups and from mice treated with different agents. […] Each value has been calculated from the total urine collected from 6 mice.

[4] = E. coli, 24 h exponential growth, pure substances and cranberry control
[5] = as given in the legend of FIG. 1F, read-out: prevention of growth of E. coli (MIC)
[6] = CHHeNCrL (so in the source); i.e. C3H/HeNCrl), mouse, in vivo

Compound | reduction of adhesion of E. coli CFT073 on urinary bladder cells ([1]; 2.5 mg/mL) | reduction of adhesion of E. coli CFT073 on urinary bladder cells ([1]; 5 mg/mL) | Observation of microbial culture (E. coli; 0.3125 mg/mL, 24 h) | Observation of microbial culture (E. coli; 0.625 mg/mL, 24 h) | Observation of microbial culture (E. coli; 1.25 mg/mL, 24 h) | Observation of microbial culture (E. coli; 2.5 mg/mL, 24 h) | Observation of microbial culture (E. coli; 5 mg/mL, 24 h) | MIC (minimal inhibitory concentration) (E. coli; [4]) | MIC (E. coli; [5]) [µg/mL] | cumulated amounts present in the urine [2, 6] [µg] | share of ingested SA found in the urines in this form ([2]; mice) [%] | also measured
O=C(O)c1cccc(O)c1O [2,3-Dihydroxybenzoic acid, 2,3-dihydroxybenzoic acid] | an effect | an effect | growth | growth * | no growth | no growth | no growth | MIC at 1.25 mg/mL | 2500 (≈ 16.2 mM) | 68 | – | MIC (minimal inhibitory concentration) (E. coli; E. coli, 24 h exponential growth, pure substances and cranberry control, listed as 2): 5000 µg/mL (≈ 32.4 mM)
O=C(O[C@H]1[C@@H]2OC(=O)c3cc(O)c(O)c(O)c3-c3c4cc(c(O)c3O)Oc3c(cc(O)c(O)c3O)C(=O)O[C@H]3C(O)O[C@@H]5COC(=O)c6cc(O)c(O)c(O)c6-c6c(cc(c(O)c6O)Oc6c(cc(O)c(O)c6O)C(=O)O[C@H]1C(O)O[C@@H]2COC4=O)C(=O)O[C@H]5[C@@H]3OC(=O)c1cc(O)c(O)c(O)c1)c1cc(O)c(O)c(O)c1 (stereo partly shown) [Oenothein B] | – | – | – | – | – | – | – | MIC at 1.3 mg/mL | – | – | – | Observation of microbial culture (E. coli; 0.65 mg/mL): growth; Observation of microbial culture (E. coli; 1.3 mg/mL): no growth; Observation of microbial culture (E. coli; 1.9 mg/mL): no growth; Observation of microbial culture (E. coli; 2.6 mg/mL): no growth; Observation of microbial culture (E. coli; 3.25 mg/mL): no growth; MIC (E. coli; 24 h, read-out: MIC (minimal inhibitory concentration)): 1300 µg/mL (≈ 0.829 mM); MIC (E. coli; read-out: prevention of growth of E. coli (MIC)): 1300 µg/mL (≈ 0.829 mM); number of adhered bacteria E. coli lower than in the controls (E. coli CFT073; 0.065 mg/100 mL, inoculation 3.28×5×10^6 cfu): 75.12%; identification of the compound and its metabolites by LC-MS in the collected urine samples ([2]; mouse, in vivo, po): not identified
O=C(O)c1ccccc1O [Salicylic acid, salicylic acid] | adhesion reduction efficacy | adhesion reduction efficacy | growth | growth | growth | growth | no growth | MIC at 5 mg/mL | 5000 (≈ 36.2 mM) | 84 | 5.4 | reduction of adhesion of E. coli CFT073 on urinary bladder cells ([1]; 1.25 mg/mL): adhesion reduction efficacy; concentration necessary for inhibition of E. coli adhesion to human bladder epithelium ([1]; for 1 hour): 2.5 mg/mL; MIC (E. coli; 24 h, E. coli, 24 h exponential growth, pure substances and cranberry control, read-out: MIC (minimal inhibitory concentration)): 5000 µg/mL (≈ 36.2 mM); inhibitory effect on the bacterial infection (adhesion) (E. coli CFT073; 0.05 mg/100 μL by gavage 8 times in 24 h, 5×10^7 cfu E. coli trans-urethral, n=6 mice): −60%; inhibitory effect on the bacterial infection (adhesion) (E. coli CFT073; 3.3×10^6 cfu trans-urethral): −61.3%
O=C(O)CNC(=O)c1ccccc1O [Salicyluric acid, salicyluric acid] | – | – | growth | growth | growth | growth * | no growth | MIC at 5 mg/mL | 2500 (≈ 12.8 mM) | – | 32.0 | MIC (minimal inhibitory concentration) (E. coli; E. coli, 24 h exponential growth, pure substances and cranberry control, listed as 3): 1250 µg/mL (≈ 6.4 mM); cumulated amounts present in the urine ([2]; mice, FIG. 3B): 707 µg
quercetin-4′-O-glucoside [Spiraeoside] | – | – | – | – | – | – | – | – | – | – | – | % variation versus Negative Control (water), urine [3]: −9.10%; % variation versus Positive Control (Cranberry), urine [3]: −4.20%
